Literature values, collected in patent US6376005B2, “Antimicrobial composition for food and beverage products” (The Procter & Gamble Company, priority 1997, dated 2002).

Experiments:
[1] = test system: Zygosaccharomyces bailii
[2] = test system: bacteria

Row | SMILES | effectiveness against yeasts such as Zygosaccharomyces bailii [1] | effectiveness against bacteria [2]
1 | C[C@@H]1C/C=C/C=C/C=C/C=C/[C@H](O[C@@H]2O[C@H](C)[C@@H](O)[C@H](N)[C@@H]2O)C[C@@H]2O[C@](O)(C[C@@H](O)C[C@H]3O[C@@H]3/C=C/C(=O)O1)C[C@H](O)[C@H]2C(=O)O [natamycin] | particularly effective | not effective
2 | C/C=C/C=C/C(=O)[O-].[K+] [potassium sorbate] | not effective | –
